Laboratory results taken from patent US9783485B1, “Crystalline inhibitor of 4-hydroxyphenylpyruvate dioxygenase, and a process of synthesis and crystallization thereof” (Dipharma S.A., priority 2016, dated 2017).

Assay: Stability studies of nitisinone obtained through the process of the invention (storage; appearance, KF water, HPLC assay, impurities by HPLC and HPLC/MS)
Format: physicochemical
Excerpt: When referring to purity determined by HPLC techniques, said chromatograms are gathered at a wavelength of 235 nm. […] The presence of impurity-4 was checked by reverse HPLC/MS using the method described in the table underneath. [table] [table]

stability (in words) (even in accelerated conditions, period of at least six months): extremely stable
impurity-4 content (in words) (independently from the storage conditions, reverse HPLC/MS): below the limit of quantification
Structure (SMILES): O=C1CCCC(=O)C1C(=O)c1ccc(C(F)(F)F)cc1[N+](=O)[O-] [nitisinone, 2-(2-nitro-4-trifluoromethylbenzoyl)-1,3-cyclohexanedione]
